The values below are quoted from earlier work in US7119079B2, “Bioadhesive pharmaceutical compositions” (priority 2003, dated 2006).

Data set [1] has as its system Mycobacterium tuberculosis.
Data set [2] deals with distal ulcerative colitis. To be noted: compared with hydrocortisone and mesalamine enemas.
Data set [3] has as its system distal ulcerative colitis. The following applies: enemas, patients with distal ulcerative colitis; fraction of patients.

For `Nc1ccc(C(=O)O)c(O)c1` [Compound 4-ASA, 4-amino salicylic acid], the “activity against Mycobacterium tuberculosis” value in data set [1] was “bacteriostatic”. For the same compound, in data set [2], the “effectiveness of enemas in distal ulcerative colitis” value is “as effective as hydrocortisone enemas and as effective as mesalamine enemas”.

In the case of `Nc1ccc(O)c(C(=O)O)c1` [mesalamine, 5-amino salicylic acid], in data set [3], the patients showing improvement entry is on record as “Three quarters”.

For `Nc1ccc(S(=O)(=O)Nc2ccccn2)cc1` [sulfapyridine], the patients showing improvement result in data set [3] was “about one third”.

Turning to `O=C(O)c1cc(/N=N/c2ccc(S(=O)(=O)Nc3ccccn3)cc2)ccc1O` [sulfasalazine, salicyl-azo-sulfapyridine], the patients showing improvement entry in data set [3] was “Three quarters”.
